Test results: US8119159B2, “Solid oral dosage form containing an enhancer” (Merrion Research III Limited, priority 1999, dated 2012)

Experiments:
[1] = Closed loop rat model, intraduodenal TRH with enhancer, serum TRH; format: in vivo; conditions: interduodenal bolus 500 or 1000 μg TRH with 35 mg enhancer
Protocol: Male Wistar rats (weight range 250 g-350 g) were anaesthetized with ketamine hydrochloride/acepromazine. […] All intraduodenal dose volumes (for samples and control) were 1 ml/kg. The proximal end of the segment was ligated and the loop was sprayed with isotonic saline (37° C.) to provide moisture and then replaced in the abdominal cavity avoiding distension. The incision was closed with surgical clips. A group of animals were administered TRH in PBS (100 μg in 0.2 ml) by subcutaneous injection as a reference.

[2] = tested on: plasma anti-factor Xa activity; assay: Dog study of oral heparin/enhancer tablets, anti-factor Xa and clinical assessment; format: in vivo; conditions: dogs, IR formulations, equivalent dose of heparin
Protocol: Tablets from batches 3, 7 and 15 in Tables 5 and 6 above were dosed orally to groups of five dogs in a single dose crossover study. […] Blood samples for anti-factor Xa analysis were collected from the jugular vein at various time points.

[3] = tested on: Caco-2 monolayers; assay: 3H-TRH apical to basolateral transport (Papp) across Caco-2 monolayers; format: in vitro ADME; conditions: sodium salts at the concentrations of Table 1
Protocol: (§1) Cell Culture: Caco-2 cells were cultured in Dulbecco's Modified Eagles Medium (DMEM) 4.5 g/L glucose supplemented with 1% (v/v) non-essential amino acids; 10% fetal calf serum and 1% penicillin/streptomycin. […] The cells were grown and expanded in standard tissue culture flasks and were passaged once they attained 100% confluence. The Caco-2 cells were then seeded on polycarbonate filter inserts (Costar; 12 mm diameter, 0.4 μm pore size) at a density of 5×10^5 cells/cm^2 and incubated in six well culture plates with a medium change every second day. Confluent monolayers between day 20 and day 30 seeding on filters and at passages 30-40 were used throughout these studies.
(§2) Transepithelial Transport Studies: The effects of sodium salts of various MCFAs on the transport of ^3H-TRH (apical to basolateral flux) was examined as follows: 15.0 μCi/ml (0.2 μM) ^3H-TRH was added apically at time zero for TRH flux experiments. The transport experiments were performed in Hank's Balanced Salt Solution (HBSS) containing 25 mM N-[2-hydroxyethyl]-piperazine-N′-[2-ethanesulfonic acid] (HEPES) buffer, pH 7.4 at 37° C. Due to variations in solubilities, various concentrations of the different MCFA sodium salts and various apical buffers were used as shown in Table 1. In all cases the basolateral chamber contained regular HBSS+HEPES.
After removing the cell culture medium, the monolayers were placed in wells containing prewarmed HBSS (37° C.); 1 ml apically and 2 ml basolaterally. Monolayers were incubated at 37° C. for 30 mins. Then at time zero, apical HBSS was replaced with the relevant apical test solution containing the radiolabelled compounds with and without the enhancer compound. […] The plates were placed on an orbital shaker in an incubator (37° C.). Transport across the monolayers was followed by basolateral sampling (1 ml) at 30 min. intervals up to 120 mins. […] Apical stock radioactivity was determined by taking 10 μl samples at t=0 and t=120 mins. […] Mean values for ^3H-TRH concentrations were calculated for the apical and basolateral solutions at each time point.

[4] = tested on: plasma anti-factor Xa activity; assay: Closed-loop rat segment, intraileal USP heparin with enhancer, plasma anti-factor Xa; conditions: USP heparin 1000 iu
Protocol: The procedure carried out in Example 1 (a) above was repeated using USP heparin in place of TRH and dosing intraileally rather than intraduodenally. A mid-line incision was made in the abdomen and the distal end of the ileum located (about 10 cm proximal to the ileo-caecal junction). 7-9 cm of tissue was isolated and the distal end ligated, taking care to avoid damage to surrounding blood vessels. Heparin absorption as indicated by […] (APTT) response was measured by placing a drop of whole blood (freshly sampled from the tail artery) on the test cartridge of Biotrack 512 coagulation monitor. APTT measurements were taken at various time points.
Citrated blood samples were centrifuged at 3000 rpm for 15 mins. to obtain plasma for anti-factor Xa analysis. […] The control in each case is a solution of the same heparin concentration containing no enhancer.

[5] = tested on: Caco-2 monolayers; assay: TEER of Caco-2 monolayers with MCFA sodium salts and 3H-TRH; format: cell-based; conditions: Caco-2 monolayers over 2 hours, sodium salts with 3H-TRH, concentrations of Table 1
Protocol: as §1, §2
After removing the cell culture medium, the monolayers were placed in wells containing prewarmed HBSS (37° C.); 1 ml apically and 2 ml basolaterally. Monolayers were incubated at 37° C. for 30 mins. Then at time zero, apical HBSS was replaced with the relevant apical test solution containing the radiolabelled compounds with and without the enhancer compound. […] The plates were placed on an orbital shaker in an incubator (37° C.). Transport across the monolayers was followed by basolateral sampling (1 ml) at 30 min. intervals up to 120 mins. At each 30 min. interval each insert was transferred to a new well containing 2 ml fresh prewarmed HBSS. Apical stock radioactivity was determined by taking 10 μl samples at t=0 and t=120 mins. […] Mean values for ^3H-TRH concentrations were calculated for the apical and basolateral solutions at each time point.

[6] = Closed-loop rat segment, intraileal USP heparin with enhancer, APTT response; format: in vivo; conditions: USP heparin 1000 iu, sodium caprate 10 and 35 mg
Excerpt: APTT measurements were taken at various time points.

[7] = oral conventional forms, cited from earlier work
[8] = in vivo
Protocol: Beagle dogs (10-15 Kg) were sedated with medetomidine (80 μg/kg) and an endoscope was inserted via the mouth, esophagus and stomach into the duodenum. The test solutions (10 ml), comprising leuprolide acetate (Mallinckrodt Inc, St. Louis, Mo.) with or without enhancer reconstituted in deionized water were administered intraduodenally via the endoscope. Following removal of the endoscope, sedation was reversed using atipamezole (400 μg/kg). The parenteral reference solutions comprising 1 mg Leuprolide reconstituted in 0.5 ml sterile water were administered intravenously and subcutaneously respectively.

[9] = tested on: plasma anti-factor Xa activity; assay: Intraduodenal LMWH with enhancers in rats (open loop), plasma anti-factor Xa; format: in vivo, rat; conditions: intraduodenal 1000 IU, absence of enhancer

**Q.** With `CCCCCCCC(=O)[O-].[Na+]` [Batch C8, sodium caprylate] as the compound, how does the “serum levels of TRH over the control TRH solution” value [1] read?
**A.** Its value is “significantly increases”.

**Q.** Which “anti-factor Xa response, NaC10 relative to NaC8 enhancer” value [2] does the source give for `CCCCCCCCCC(=O)[O-].[Na+]` [Batch C10, sodium caprate] here?
**A.** Its value is “larger anti-factor Xa response”.

**Q.** What about the “serum levels of TRH over the control TRH solution” value [1] of the same compound?
**A.** The value was “significantly increases”.

**Q.** What about the “effect on permeability constant Papp for 3H-TRH compared to the control” value (“effect … for 3H-TRH compared to the control” below) [3] of the same compound?
**A.** The value was “considerable increases”.

**Q.** What about the “anti-factor Xa activity relative to control heparin solution” value ([4]; enhancer 10 mg dose) of the same compound?
**A.** The value was “significant increase”.

**Q.** And the “anti-factor Xa activity relative to control heparin solution” value ([4]; enhancer 35 mg dose)?
**A.** Its value is “significant increase”.

**Q.** And the “effect on TEER compared to the control” value [5]?
**A.** Its value is “minimal reduction in TEER”.

**Q.** What about the “heparin absorption by APTT response vs control heparin solution” value [6] of the same compound?
**A.** Its value is “significant increase in absorption”.

**Q.** With `CCCCCCCCCCCC(=O)[O-].[Na+]` [Batch C12, sodium laurate] as the compound, how does the “effect … for 3H-TRH compared to the control” value [3] read?
**A.** Its value is “considerable increases”.

**Q.** And the “effect on TEER compared to the control” value [5]?
**A.** Its value is “some cell damage (reduction in TEER)”.

**Q.** With `CCCCCCCCCCCCCC(=O)[O-].[Na+]` [Batch C14] as the compound, how does the “effect … for 3H-TRH compared to the control” value [3] read?
**A.** Its value is “considerable increases”.

**Q.** And the “effect on TEER compared to the control” value [5]?
**A.** The value was “minimal reduction in TEER”.

**Q.** With `CCCCCCCCCCCCCCCCCC(=O)[O-].[Na+]` [Batch C18] as the compound, how does the “effect on TEER compared to the control” value [5] read?
**A.** Its value is “minimal reduction in TEER”.

**Q.** For `NCCCC(O)(P(=O)(O)O)P(=O)(O)O` [alendronate], which “further share of the dose absorbed excreted in the urine” value ([7]; over the next 64 hours) is on record?
**A.** The value was 5%.

**Q.** What about the “share of the dose absorbed excreted in the urine” value ([7]; within 8 hours) of the same compound?
**A.** The value was 40%.

**Q.** Which bioavailability [8] does the source give for `CCNC(=O)[C@@H]1CCCN1C(=O)[C@H](CCCNC(=N)N)NC(=O)[C@H](CC(C)C)NC(=O)[C@@H](CC(C)C)NC(=O)[C@H](Cc1ccc(O)cc1)NC(=O)[C@H](CO)NC(=O)[C@H](Cc1c[nH]c2ccccc12)NC(=O)[C@H](Cc1c[nH]cn1)NC(=O)[C@@H]1CCC(=O)N1` [leuprolide, leuprolide acetate] here?
**A.** Its bioavailability is 8%.

**Q.** What about the “systemic delivery of leuprolide” value ([8]; dog, in vivo) of the same compound?
**A.** Its value is “negligible”.

**Q.** With parnaparin sodium [LMWH] as the compound, how does the “systemic delivery of LMWH” value [9] read?
**A.** The value was “relatively poor”.
